Converted amounts (≈) assume the structure as drawn. Where two headings read alike, the source gives them in different places.
What was measured:
Punta Toro virus = assay: Antiviral activity, Punta Toro virus; format: cell-based; details: Table 3, reference compounds
Coxsackie virus B4 = assay: microbe, parasite or virus in culture; format: cell-based; details: Table 3, reference compounds
Sindbis virus = assay: Antiviral activity, Sindbis virus; format: cell-based; details: Table 3, reference compounds
Reovirus-1 = assay: Antiviral activity, Reovirus-1; format: cell-based; details: Table 3, reference compounds
[1] = tested on: Herpes simplex virus-1 TK KOS-ACV^r; assay: Antiviral activity, Herpes simplex virus-1 TK KOS-ACVr; format: cell-based; details: Human alphaherpesvirus 1, read-out: EC50 Herpes simplex virus-1 TK KOS-ACV^r
[2] = tested on: Herpes simples virus-2 (G); assay: Antiviral activity, Herpes simplex virus-2 (G); format: cell-based; details: Human alphaherpesvirus 2; Table 4, reference compounds
Para-influenza-3 virus = assay: Antiviral activity, Para-influenza-3 virus; format: cell-based; details: Table 3, reference compounds
[3] = tested on: Herpes simplex virus-1 (KOS); assay: Antiviral activity, Herpes simplex virus-1 (KOS); format: cell-based; details: Human alphaherpesvirus 1; Table 4, reference compounds
Vaccinia virus = assay: microbe, parasite or virus in culture; format: cell-based; details: Orthopoxvirus vaccinia, read-out: EC50 Vaccinia virus
[4] = tested on: Vesicular stomatitis virus; assay: microbe, parasite or virus in culture; format: cell-based; details: read-out: EC50 Vesicular stomatitis virus
in vitro = details: human, CEM cells
[5] = tested on: human corona (SARS) virus; assay: microbe, parasite or virus in culture; format: cell-based; details: Severe acute respiratory syndrome coronavirus, read-out: Human Corona virus EC50
Feline Corona virus = assay: Activity on feline corona virus in CRFK cells; format: cell-based
HIV-2 = assay: Antiretrovirus assay, HIV-2; details: Human immunodeficiency virus 2, read-out: EC50 HIV-2
HIV-1 = assay: microbe, parasite or virus in culture; details: Human immunodeficiency virus 1, CCRF-CEM, read-out: EC50 HIV-1
Influenza A H3N2 subtype = assay: Anti-influenza activity in MDCK cells, Influenza A H3N2; format: cell-based; details: Influenza A virus, reference compounds
From the text: (§1) MDCK cells (Madin Darby canine kidney cells) have been used for the experiments shown in table 5 using standard procedures known in the art.

Influenza A H1N1 subtype = assay: Anti-influenza activity in MDCK cells, Influenza A H1N1; format: cell-based; details: Influenza A virus, reference compounds
From the text: as §1

Structure (SMILES)	EC50 (Reovirus-1) [µM]	EC50 (Punta Toro virus; Punta Toro virus) [µM]	EC50 [1] [µM]	EC50 [2] [µM]	EC50 (Coxsackie virus B4; Enterovirus B, B4) [µM]	EC50 (Sindbis virus; Sindbis virus) [µM]	EC50 (Para-influenza-3 virus) [µM]	EC50 [3] [µM]	EC50 (Vaccinia virus) [µM]	EC50 [4] [µM]	CC50 (in vitro) [µg/mL]	melting point [°C]	EC50 [5] [µg/mL]	EC50 (Feline Corona virus) [µg/mL]	EC50 (HIV-2) [µg/mL]	EC50 (HIV-1) [µg/mL]	also measured
Nc1ncnc2c1ncn2C[C@H](O)CO [(S)-DHPA]	–	–	–	–	–	–	–	–	–	–	–	–	–	–	–	–	EC50 (Punta Toro virus): > 250 µM; EC50 (Coxsackie virus B4): > 250 µM; EC50 (Sindbis virus): > 250 µM
O=c1[nH]c(=O)n([C@H]2C[C@H](O)[C@@H](CO)O2)cc1/C=C/Br [Brivudin]	> 250	> 250	50	10	> 250	> 250	> 250	0.016	2	> 250	–	–	–	–	–	–	–
Cc1cc(C)nc(NCc2c(C)c(CNc3cc(C)cc(C)n3)c(C)c(CNc3cc(C)cc(C)n3)c2C)c1 [Compound 3a, 1,3,5-Tris[(4,6-dimethyl-pyridin-2-yl)aminomethyl]-2,4,6-trimethyl-benzene]	–	–	–	–	–	–	–	–	–	–	2.63 ± 0.08 (≈ 5.03 µM)	193 to 195	1.3 ± 0.2 (≈ 2.49 µM)	0.8 ± 0.6 (≈ 1.53 µM)	> 0.8	> 0.8	–
CCc1c(CNc2cc(C)cc(C)n2)c(CC)c(CNc2cc(C)cc(C)n2)c(CC)c1CNc1cc(C)cc(C)n1 [Compound 3b, 1,3,5-Tris[(4,6-dimethyl-pyridin-2-yl)aminomethyl]-2,4,6-triethyl-benzene]	–	–	–	–	–	–	–	–	–	–	2.87 ± 0.23 (≈ 5.08 µM)	183 to 185	8.6 ± 4.9 (≈ 15.2 µM)	1.1 ± 0.6 (≈ 1.95 µM)	> 0.8	> 0.8	–
NC(=O)c1ncn([C@@H]2O[C@H](CO)[C@@H](O)[C@H]2O)n1 [Ribavirin]	150	150	150	150	> 250	250	250	50	150	> 250	–	–	–	–	–	–	EC50 (Influenza A H3N2 subtype; H3N2, MTS, read-out: EC50 Influenza A H3N2 subtype MTS): 8.9 µM; EC50 (Influenza A H3N2 subtype; H3N2, visual CPE, read-out: EC50 Influenza A H3N2 subtype visual CPE score): 8.9 µM; EC50 (Influenza A H1N1 subtype; H1N1, MTS, read-out: EC50 Influenza A H1N1 subtype MTS): 9 µM; EC50 (Influenza A H1N1 subtype; H1N1, visual CPE, read-out: EC50 Influenza A H1N1 subtype visual CPE score): 8.9 µM
